According to patent US8999942B2, “Polyol modified aminoglycoside-lipid conjugates” (University of Manitoba, priority 2010, dated 2015):

Legend:
[1] = test system: E. coli (Amikacin MIC 32) CAN-ICU 63074; test: MIC, broth macrodilution (CLSI), E. coli CAN-ICU 63074; assay type: cell-based
Protocol: (§1) All compounds were tested against American Type Culture Collection (ATCC) reference strains as well as clinical isolates from the Canadian Intensive Care Unit (CAN-ICU) study (Zhanel, et al., 2008). […] Antibacterial activity against Gram-positive and Gram-negative microorganisms was performed via broth macrodilution tests using CLSI methodology (Clinical and Laboratory Standards Institute, 2006). The minimum inhibitory concentration (MIC) in μg/mL of the aminoglycoside-derived amphiphilic polycarbamates and polyethers were determined using established methods (Clinical and Laboratory Standards Institute, 2006) and are shown in Tables 1 and 2, respectively.

[2] = test system: methicillin-resistant Staphylococcus aureus (MRSA) ATCC 33592; test: MIC, broth macrodilution (CLSI), MRSA ATCC 33592; assay type: cell-based; details: MRSA, methicillin-resistant S. aureus ATCC 33592
Protocol: as §1

[3] = test system: P. aeruginosa (Gent-R) CAN-ICU 62308; test: MIC, broth macrodilution (CLSI), P. aeruginosa CAN-ICU 62308; assay type: cell-based, Pseudomonas aeruginosa
Protocol: as §1

[4] = test system: E. coli (Gentamicin-resistant) CAN-ICU 61714; test: MIC, broth macrodilution (CLSI), gentamicin-resistant E. coli; assay type: cell-based; details: footnote ATCC 6174 (gentamicin resistant)
Protocol: as §1

[5] = test system: S. epidermidis ATCC 14990; test: MIC, broth macrodilution (CLSI), S. epidermidis; assay type: cell-based, Staphylococcus epidermidis; details: footnote ATCC 1490
Protocol: as §1

[6] = test system: Acinetobacter baumanni (CAN-ICU 63169); test: MIC, broth macrodilution (CLSI), A. baumannii; assay type: cell-based; details: A. baumannii CAN-ICU 63169
Protocol: as §1

[7] = test system: Streptococcus pneumoniae ATCC 49619; test: MIC, broth macrodilution (CLSI), S. pneumoniae ATCC 49619; assay type: cell-based
Protocol: as §1

[8] = test system: Pseudomonas aeruginosa ATCC 27853; test: MIC, broth macrodilution (CLSI), P. aeruginosa ATCC 27853; assay type: cell-based
Protocol: as §1

S. aureus ATCC 29213 = test: MIC, broth macrodilution (CLSI), S. aureus ATCC 29213; assay type: cell-based, Staphylococcus aureus
Protocol: as §1

E. coli ATCC 25922 = test: MIC, broth macrodilution (CLSI), E. coli ATCC 25922; assay type: cell-based
Protocol: as §1

S. pneumoniae ATCC 13883 = test: MIC, broth macrodilution (CLSI), S. pneumoniae ATCC 13883; assay type: cell-based
Protocol: as §1

[9] = test system: methicillin-resistant Staphylococcus epidermidis (MRSE) CAN-ICU 61589; test: MIC, broth macrodilution (CLSI), MRSE; assay type: cell-based; details: methicillin-resistant S. epidermidis, footnote (ATCC 14990)
Protocol: as §1

[10] = test system: Stenotrophomonas maltophilia (CAN-ICU 62585); test: MIC, broth macrodilution (CLSI), S. maltophilia; assay type: cell-based; details: S. maltophilia, footnote CAN-ICU 62584
Protocol: as §1

Molecule | Minimal Inhibitory Concentration (MIC) [1] | Minimal Inhibitory Concentration (MIC) [2] | Minimal Inhibitory Concentration (MIC) [3] | Minimal Inhibitory Concentration (MIC) [4] | Minimal Inhibitory Concentration (MIC) [5] | Minimal Inhibitory Concentration (MIC) [6] | Minimal Inhibitory Concentration (MIC) [7] | Minimal Inhibitory Concentration (MIC) [8] | Minimal Inhibitory Concentration (MIC) (S. aureus ATCC 29213) | Minimal Inhibitory Concentration (MIC) (E. coli ATCC 25922) | Minimal Inhibitory Concentration (MIC) (S. pneumoniae ATCC 13883) | Minimal Inhibitory Concentration (MIC) [9] | Minimal Inhibitory Concentration (MIC) [10]
NCCC(OCc1ccccc1)C(=O)NC1CC(N)C(OC2OC(CN)C(OCc3ccccc3)C(OCc3ccccc3)C2OCc2ccccc2)C(OCc2ccccc2)C1OC1OC(COCc2ccccc2)C(OCc2ccccc2)C(N)C1OCc1ccccc1.O=C(O)C(F)(F)F.O=C(O)C(F)(F)F.O=C(O)C(F)(F)F.O=C(O)C(F)(F)F (stereo not shown) [Compound 18] | 16 µg/mL | 4 µg/mL | 64 µg/mL | 16 µg/mL | 1 µg/mL | 32 µg/mL | 32 µg/mL | 128 µg/mL | 4 µg/mL | 16 µg/mL | 16 µg/mL | 1 µg/mL | 32 µg/mL
NCCC(OCc1ccc(Cl)cc1)C(=O)NC1CC(N)C(OC2OC(CN)C(OCc3ccc(Cl)cc3)C(OCc3ccc(Cl)cc3)C2OCc2ccc(Cl)cc2)C(OCc2ccc(Cl)cc2)C1OC1OC(COCc2ccc(Cl)cc2)C(OCc2ccc(Cl)cc2)C(N)C1OCc1ccc(Cl)cc1.O=C(O)C(F)(F)F.O=C(O)C(F)(F)F.O=C(O)C(F)(F)F.O=C(O)C(F)(F)F (stereo not shown) [Compound 19] | 256 µg/mL | 128 µg/mL | >256 µg/mL | >256 µg/mL | 128 µg/mL | >256 µg/mL | 128 µg/mL | >256 µg/mL | 128 µg/mL | >256 µg/mL | >256 µg/mL | 64 µg/mL | >256 µg/mL
NC[C@H]1O[C@H](O[C@H]2[C@H](O)[C@@H](O[C@H]3O[C@H](CO)[C@@H](O)[C@H](N)[C@H]3O)[C@H](N)C[C@@H]2N)[C@H](O)[C@@H](O)[C@@H]1O [Kanamycin A, reference compound] | 32 µg/mL | >512 µg/mL | >512 µg/mL | 16 µg/mL | 2 µg/mL | 32 µg/mL | 8 µg/mL | >512 µg/mL | 4 µg/mL | 8 µg/mL | 1 µg/mL | 128 µg/mL | >512 µg/mL
Gentamicin [reference compound] | 8 µg/mL | 2 µg/mL | 128 µg/mL | 128 µg/mL | 0.25 µg/mL | 128 µg/mL | 4 µg/mL | 8 µg/mL | 1 µg/mL | 1 µg/mL | 0.25 µg/mL | 32 µg/mL | >512 µg/mL
